Test results: ChEMBL document CHEMBL4808216, “Gut-Restricted Selective Cyclooxygenase-2 (COX-2) Inhibitors for Chemoprevention of Colorectal Cancer” (J Med Chem, 2021)
≈ marks a conversion by molar mass, not a printed value. Calls of active or inactive are those of the source. No cut-off for these calls is given here.

Columns and labels:
[1] = biological target: T1, Prostaglandin G/H synthase 1 (Homo sapiens, UniProt P23219); experiment: Inhibition of COX1 in human whole blood assessed as reduction in calcium ionophore-stimulated TXB2 production incubated for 1 hr by ELISA; type: tissue-based
[2] = Drug concentration in C57BL/6J mouse portal vein plasma at 10 mg/kg, po administered as cassette dose measured at 4 hrs by LC/MS/MS analysis; type: ADME, organism-based
[3] = biological target: T2, Prostaglandin G/H synthase 2 (Homo sapiens, UniProt P35354); experiment: Inhibition of human recombinant COX-2 assessed as reduction in peroxidase activity using arachidonic acid as substrate preincubated for 60 mins followed by substrate addition for 2 secs by ADPH based fluorometric analysis
T2 sequence (P35354 whole entry): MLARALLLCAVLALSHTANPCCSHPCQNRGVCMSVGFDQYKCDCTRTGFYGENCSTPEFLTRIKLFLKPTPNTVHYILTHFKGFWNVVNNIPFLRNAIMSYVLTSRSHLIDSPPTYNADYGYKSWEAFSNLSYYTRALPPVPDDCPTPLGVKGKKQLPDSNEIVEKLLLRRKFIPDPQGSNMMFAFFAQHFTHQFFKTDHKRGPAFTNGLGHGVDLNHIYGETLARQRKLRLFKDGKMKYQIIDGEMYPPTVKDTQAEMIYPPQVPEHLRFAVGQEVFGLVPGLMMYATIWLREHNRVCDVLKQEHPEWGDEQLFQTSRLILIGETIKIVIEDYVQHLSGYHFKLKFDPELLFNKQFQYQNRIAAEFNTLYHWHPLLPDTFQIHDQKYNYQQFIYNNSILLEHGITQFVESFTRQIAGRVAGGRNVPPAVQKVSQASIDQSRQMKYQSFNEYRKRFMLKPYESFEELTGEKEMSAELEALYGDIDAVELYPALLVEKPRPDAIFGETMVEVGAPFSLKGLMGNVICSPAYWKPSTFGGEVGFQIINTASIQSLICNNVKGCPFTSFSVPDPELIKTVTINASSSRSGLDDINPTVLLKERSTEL

[4] = tested on: Mus musculus; experiment: Antitumor activity in C57BL/6J mouse model of spontaneous GI-tract tumor Apc-min assessed as reduction in total ileum polyp area at 30 to 300 mg/kg, po administered as suspension for 10 weeks; type: functional, organism-based; settings: dose 30-300 mg/kg
[5] = biological target: T2, Prostaglandin G/H synthase 2; experiment: Inhibition of COX2 (unknown origin) expressed in HEK293 TRex cells assessed as reduction in PGE2 production using arachidonic acid as substrate preincubated for 60 mins followed by substrate addition for 1 hr in presence of 10% FBS by RapidFire High-Throughput Mass Spectrometry; type: cell-based, HEK293-T-REx
[6] = organism: Homo sapiens; experiment: Selectivity ratio of IC50 for COX1 in human whole blood assessed as reduction in calcium ionophore-stimulated TXB2 production to IC50 for COX2 in human whole blood assessed as reduction in LPS stimulated PGE2 production; type: tissue-based
[7] = Protein binding in human colon assessed as unbound fraction; type: ADME, tissue-based
[8] = Protein binding in human plasma assessed as unbound fraction; type: ADME, cell-free
[9] = Drug concentration in C57BL/6J mouse colon at 10 mg/kg, po administered as cassette dose measured at 4 hrs by LC/MS/MS analysis; type: ADME, organism-based; settings: read-out: Ct
[10] = tested on: Mus musculus; experiment: Chemo-protective activity in C57BL/6J mouse model of spontaneous GI-tract tumor Apc-min assessed as 18F-FDG uptake in ileum at 300 mg/kg, po incorporated into chow diet administered daily for 2 weeks and measured after 14 days by ex vivo PET imaging analysis relative to control; type: functional
[11] = tested on: Mus musculus; experiment: Antitumor activity in C57BL/6J mouse model of spontaneous GI-tract tumor Apc-min assessed as mouse survival at 100 mg/kg, po administered daily as suspension and measured at day 82 by Kaplan-Meier method; type: functional
[12] = biological target: T3, Prostaglandin G/H synthase 2 (Mus musculus, UniProt Q05769); experiment: In vivo inhibition of COX2 in po dosed C57BL/6J mouse model of spontaneous GI-tract tumor Apc-min assessed as chemopreventive effect by measuring reduction in polyp area and relevant ileum exposures; type: functional, organism-based
T3 sequence (Q05769 whole entry): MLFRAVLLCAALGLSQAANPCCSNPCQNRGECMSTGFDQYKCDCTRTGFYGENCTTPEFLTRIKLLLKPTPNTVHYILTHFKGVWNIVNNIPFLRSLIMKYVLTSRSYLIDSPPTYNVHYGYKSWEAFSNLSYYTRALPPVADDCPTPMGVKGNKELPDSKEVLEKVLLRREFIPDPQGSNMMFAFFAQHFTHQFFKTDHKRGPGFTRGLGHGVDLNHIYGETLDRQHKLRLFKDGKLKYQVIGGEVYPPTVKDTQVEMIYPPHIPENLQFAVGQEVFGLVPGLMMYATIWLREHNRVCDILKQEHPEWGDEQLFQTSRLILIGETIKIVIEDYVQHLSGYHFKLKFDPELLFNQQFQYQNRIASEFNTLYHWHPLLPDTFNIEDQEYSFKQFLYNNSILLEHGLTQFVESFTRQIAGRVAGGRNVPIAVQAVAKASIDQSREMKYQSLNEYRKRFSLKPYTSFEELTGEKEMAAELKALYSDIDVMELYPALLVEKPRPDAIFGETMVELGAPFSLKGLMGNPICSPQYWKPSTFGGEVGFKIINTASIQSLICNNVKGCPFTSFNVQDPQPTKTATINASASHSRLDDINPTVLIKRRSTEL

[13] = in vivo; settings: C57BL/6J, mouse, colon / portal vein plasma, po, 10 mg/kg
Description: Ratio of drug concentration in C57BL/6J mouse colon to portal vein plasma at 10 mg/kg, po measured after 4 hr by liquid chromatographic triple-quadrupole mass spectrometric method

[14] = biological target: T1, Prostaglandin G/H synthase 1; experiment: Inhibition of COX1 (unknown origin) expressed in HEK293 TRex cells assessed as reduction in PGE2 production using arachidonic acid as substrate preincubated for 60 mins followed by substrate addition for 1 hr in presence of 10% FBS by RapidFire High-Throughput Mass Spectrometry; type: ADME, cell-based, HEK293-T-REx
[15] = biological target: T4, Prostaglandin G/H synthase 2 (Homo sapiens) (UniProt P35354)
T4 sequence (whole entry): T2 sequence (P35354 whole entry)
Description: Protein occupancy at human recombinant COX-2 assessed as dissociation half life

[16] = tested on: Mus musculus; experiment: Antitumor activity in C57BL/6J mouse model of spontaneous GI-tract tumor Apc-min assessed as reduction in total ileum polyp number at 30 to 300 mg/kg, po administered as suspension for 10 weeks; type: functional, organism-based; settings: dose 30-300 mg/kg
[17] = biological target: T2, Prostaglandin G/H synthase 2; experiment: Inhibition of human recombinant COX-2 using arachidonic acid as substrate preincubated for 60 mins followed by substrate addition for 2 secs by ADPH based fluorometric analysis
[18] = tested on: Mus musculus; experiment: Antitumor activity in C57BL/6J mouse model of spontaneous GI-tract tumor Apc-min assessed as change in ileum polyp size at 30 to 300 mg/kg, po administered as suspension for 10 weeks; type: functional; settings: dose 30-300 mg/kg
[19] = tested on: Mus musculus; experiment: Antitumor activity in C57BL/6J mouse model of spontaneous GI-tract tumor Apc-min assessed as reduction in total ileum polyp area at 300 mg/kg, po administered as suspension for 10 to 12 weeks; type: functional; settings: time 10-12 weeks, read-out: TGI
[20] = biological target: T1, Prostaglandin G/H synthase 1; experiment: Inhibition of human recombinant COX-1 assessed as reduction in peroxidase activity using arachidonic acid as substrate preincubated for 60 mins followed by substrate addition for 2 secs by ADPH based fluorometric analysis; type: ADME
[21] = biological target: T2, Prostaglandin G/H synthase 2; experiment: Inhibition of COX2 in human whole blood assessed as reduction in LPS stimulated PGE2 production incubated for 1 hr by ELISA; type: tissue-based
[22] = Equilibrium solubility of compound in FASSIF at pH 6.5; type: physicochemical
[23] = biological target: T3, Prostaglandin G/H synthase 2; experiment: In vivo inhibition of COX2 in po dosed C57BL/6J mouse model of spontaneous GI-tract tumor Apc-min assessed as chemopreventive effect by measuring reduction in polyp area and relevant plasma exposures; type: functional, organism-based
[24] = Ratio of drug concentration in C57BL/6J mouse colon to plasma at 10 mg/kg, po measured after 4 hr by liquid chromatographic triple-quadrupole mass spectrometric method; type: ADME, organism-based; settings: for Ratio: other tissue, 10 mg/kg, 4 h
[25] = Drug concentration in C57BL/6J mouse plasma at 10 mg/kg, po administered as cassette dose measured at 4 hrs by LC/MS/MS analysis; type: ADME, organism-based
[26] = tested on: HEK293; experiment: Selectivity ratio of IC50 for COX1 (unknown origin) expressed in HEK293 TRex cells assessed as reduction in PGE2 production to IC50 for COX2 (unknown origin) expressed in HEK293 TRex cells assessed as reduction in PGE2 production; type: cell-based; settings: Homo sapiens
[27] = Half life in C57BL/6J mouse at 2 mg/kg, iv measured after 0.08 to 24 hrs; type: ADME, organism-based; settings: in vivo, 2 mg/kg, time 0.08-24 hrs
[28] = Oral bioavailability in dog at 10 mg/kg measured up to 24 hrs by LC-MS analysis; type: ADME, organism-based, Canis lupus familiaris; settings: in vivo
[29] = Half life in human liver microsomes; type: ADME, Microsome
[30] = Tmax in C57BL/6J mouse at 10 mg/kg, po administered as cassette dose measured at 4 hrs by liquid chromatographic triple-quadrupole mass spectrometric method; type: ADME, organism-based; settings: in vivo
[31] = Oral bioavailability in Cynomolgus monkey at 10 mg/kg measured up to 24 hrs by LC-MS analysis; type: ADME, organism-based, Macaca fascicularis; settings: in vivo
[32] = Drug metabolism in mouse hepatocytes assessed as metabolic turnover at 10 uM incubated up to 2 hrs by LC/MS-MS analysis; type: ADME, cell-based, Hepatocyte
[33] = Half life in mouse hepatocytes; type: ADME, cell-based, Hepatocyte
[34] = Drug metabolism in human hepatocytes assessed as metabolic turnover at 10 uM incubated up to 2 hrs by LC/MS-MS analysis; type: ADME, cell-based, Hepatocyte; settings: read-out: Drug metabolism
[35] = Oral bioavailability in C57BL/6J mouse at 10 mg/kg measured up to 24 hrs by LC-MS analysis; type: ADME, organism-based; settings: in vivo
[36] = Half life in human hepatocytes; type: ADME, cell-based, Hepatocyte
[37] = Volume of distribution at steady state in C57BL/6J mouse at 2 mg/kg, iv measured after 0.08 to 24 hrs; type: ADME, organism-based; settings: in vivo, 2 mg/kg, time 0.08-24 hrs
[38] = Drug concentration in C57BL/6J mouse colon at 10 mg/kg, po administered as cassette dose measured at 2 hrs by liquid chromatographic triple-quadrupole mass spectrometric method; type: ADME, organism-based; settings: read-out: Ct
[39] = Half life in mouse liver microsomes; type: ADME, Microsome
[40] = Oral bioavailability in Sprague Dawley rat at 10 mg/kg measured up to 24 hrs by LC-MS analysis; type: ADME, organism-based; settings: in vivo

T1 sequence (P23219 whole entry): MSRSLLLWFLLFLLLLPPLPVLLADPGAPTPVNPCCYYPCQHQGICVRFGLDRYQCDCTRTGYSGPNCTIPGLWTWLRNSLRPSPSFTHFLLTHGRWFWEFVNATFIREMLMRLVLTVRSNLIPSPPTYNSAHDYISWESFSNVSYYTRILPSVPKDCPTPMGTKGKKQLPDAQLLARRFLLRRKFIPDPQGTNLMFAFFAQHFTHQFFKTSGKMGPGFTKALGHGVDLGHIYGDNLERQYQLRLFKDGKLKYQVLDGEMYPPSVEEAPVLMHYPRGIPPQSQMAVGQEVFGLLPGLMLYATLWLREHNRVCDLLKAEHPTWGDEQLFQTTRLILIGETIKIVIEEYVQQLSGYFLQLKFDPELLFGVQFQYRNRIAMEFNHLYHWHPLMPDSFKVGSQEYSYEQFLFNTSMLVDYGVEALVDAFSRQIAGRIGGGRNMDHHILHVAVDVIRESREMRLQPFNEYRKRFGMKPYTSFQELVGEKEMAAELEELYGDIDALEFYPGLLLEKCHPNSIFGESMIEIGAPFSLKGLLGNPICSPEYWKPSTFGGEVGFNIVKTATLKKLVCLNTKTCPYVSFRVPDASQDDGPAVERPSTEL

| SMILES | IC50 [1] [nM] | concentration at 4 h [2] [ng/mL] | IC50 [3] [nM] | Activity [4] | IC50 [5] [nM] | Ratio IC50 [6] | fraction unbound [7] | fraction unbound [8] | concentration at 4 h [9] [ng/g] | Activity [10] [%] | Survival [11] [days] | Kp at 4 h [13] | IC50 [14] [nM] | T1/2 [15] [min] | Ki [17] [nM] | inhibition in vivo at 300 mg/kg [19] [%] | IC50 [20] [nM] | IC50 [21] [nM] | solubility thermodynamic [22] [µM] | concentration at 4 h [25] [ng/mL] | other results |
| --- | --- | --- | --- | --- | --- | --- | --- | --- | --- | --- | --- | --- | --- | --- | --- | --- | --- | --- | --- | --- | --- |
| CC(C)(O)COc1nc(OCCC(F)(F)F)c(CO)cc1-c1ccc(S(C)(=O)=O)cc1 | 181000 | 179 | 500 | Active | 130 | > 200 | 0.224 | 0.01 | 15500 | 48.6 | 74 | 101 | 130 | 1320 | 32 | 48.7 | > 50000 | 877 | 44.4 (≈ 20.6 µg/mL) | 3.4 | IC50 [12]: 742 nM; Activity [16]: Active; Activity [18]: >2 mm; IC50 [23]: 1.3 nM; Ratio [24]: 5264 |
| CC(C)(O)COc1nc(OCCCC(F)(F)F)c(CO)cc1-c1ccc(S(C)(=O)=O)cc1 | > 180000 | 230 | 360 | Active | 78 | – | 0.204 | 0.011 | 16000 | – | 62.5 | 77 | 21800 | 1620 | 12 | 39.8 | > 50000 | 345 | 111 (≈ 52.8 µg/mL) | 3.8 | Ratio [6]: > 200; IC50 [12]: 160 nM; Activity [16]: Active; IC50 [23]: 1.9 nM; Ratio [24]: 4473 |
| CCCCOc1nc(OCC(C)(C)O)c(-c2ccc(S(C)(=O)=O)cc2)cc1CO | > 180000 | 24.8 | 226 | – | 47 | > 200 | 0.025 | 0.009 | 4350 | 48.9 | – | 29.7 | 14100 | 1080 | 12 | 35.1 | > 50000 | 346 | 66.5 (≈ 28.2 µg/mL) | 3 | Ratio IC50 [26]: 300; t1/2 [27]: 13.8 min; bioavailability [28]: 74%; half-life [29]: 27.8 min; Tmax [30]: 15 min; bioavailability [31]: 4.87%; Drug metabolism [32]: 79.6%; t1/2 [33]: 1.9 min; metabolised at 2 h, 10 µM [34]: 100%; bioavailability [35]: 4.25%; Kp at 4 h ([24]; C57BL/6J, colon / plasma): 1620; half-life [36]: 2.4 min; Vdss [37]: 4.92 L/kg; concentration at 2 h [38]: 6510 ng/g; half-life [39]: 2.7 min; bioavailability [40]: 1.5% |
